Laboratory results as given in PMC11930985 (Nature Communications, 2025).
Values after ≈ are worked out from the molar mass of the structure shown. Values joined by “and” are separate entries in the source; they are usually repeats but may differ in a detail not shown here. Equal values may be shown once.

How the values were obtained:
[1] = tested on: pAKT S473; experiment: CyTOF maximal inhibition in Undefined/Immature Myeloid cells: pAKT; type: in vivo, human
Source text: Pharmacodynamic endpoints included the measurement of inhibition of pAXL, pERK, pAKT, pS6 and pSTAT1/3/5 in blast cells (defined as cells with abnormal surface marker expression as compared to healthy donor peripheral blood mononuclear cells and undefined/immature myeloid cells (defined as cells carrying myeloid markers but lacking distinguishing terminal differentiation markers). Mass cytometry time of flight (CyTOF) was used for the determination of the pharmacodynamic markers using a previously validated and tested panel of mass-tagged antibodies[39],[40]. The antibodies in the panel are listed in Supplementary Table 5. Briefly, fixed leukocytes from peripheral blood were barcoded using a 20-plex metal barcoding kit (Standard Biotools, Cell-ID 201060) according to manufacturer’s protocol, allowing all the samples from a single individual to be stained and analysed in parallel. All analysis runs included barcoded peripheral blood mononuclear cells (PBMCs) from at least one healthy donor and an identical barcoded reference sample (mix of PBMCs from six healthy donors). […]
For each population, marker, and sample, the 95th percentile of the non-transformed expression values was calculated. […]

[2] = tested on: Flt1; set-up: method as in Investigator's Brochure (IB) version 5.0; details: ref Investigator's Brochure (IB) version 5.0; cited from earlier work
[3] = biological target: Tie2; set-up: method as in Investigator's Brochure (IB) version 5.0; details: ref Investigator's Brochure (IB) version 5.0; cited from earlier work
[4] = tested on: AML/MDS patients; experiment: Kaplan-Meier OS, EFS, RFS; type: in vivo, human
Experimental: Response assessments (peripheral blood and BM) were performed at Cycle 2 Day 1 (pre-dose), Cycle 4 Day 1 (pre-dose) and repeated every 3 cycles thereafter or when clinically indicated. Patients who completed 12 months of study treatment and had not experienced progressive disease (PD) underwent response assessment every 5 cycles until PD was confirmed. Efficacy endpoints were: Objective response rate (ORR), defined as the number of patients with CR, CRi, MLFS, MR or PR divided by the total number of patients in the cohort/group; Disease control rate (DCR), defined as the number of patients with CR, CRi, MLFS, MR, PR or unchanged disease for at least three cycles (considered to have stable disease (SD)) divided by the total number of patients in the cohort/group; Overall survival (OS), defined as (date of death or censoring) – (date of the first study treatment) +1. Censoring date was the last date the patient was known to be alive; Event free survival (EFS), defined as (earliest of date of death, date of progression or date of censoring) – (date of the first study treatment) +1, with event defined as death or progression. Patients who started a new anti-cancer treatment before documented progression were censored at the date of the last assessment prior to start of non-protocol treatment. […] Patients who were alive without documented progression on the last day of contact were censored at the date of the last assessment.
Analyses were performed on response data, AEs, and PK parameters. Subgroup analysis by sex was not performed due to the small number of patients. Statistical analyses were performed using descriptive statistics. The time-to-event variables RFS, EFS, and OS were analyzed using Kaplan-Meier estimates, and median time-to-event was reported alongside its 95% confidence interval (CI). Where relevant, differences between different subgroups for time-to-event endpoints were assessed using a one-tailed log-rank test.

[5] = biological target: Yes; set-up: method as in Investigator's Brochure (IB) version 5.0; details: ref Investigator's Brochure (IB) version 5.0; cited from earlier work
[6] = tested on: MD V 4-11 xenograft; set-up: method as in Investigator's Brochure (IB) version 5.0; details: ref Investigator's Brochure (IB) version 5.0, cited from earlier work
[7] = tested on: OCI-AML5 xenograft; set-up: method as in Investigator's Brochure (IB) version 5.0; details: ref Investigator's Brochure (IB) version 5.0; cited from earlier work

Nc1nc(Nc2ccc3c(c2)CC[C@@H](N2CCCC2)CC3)nn1-c1cc2c(nn1)-c1ccccc1CCC2 [Bemcentinib]
EC50 ([1]; Homo sapiens, Undefined/Immature Myeloid cells, N = 12 patients, read-out: EC50 (± standard error), pAKT S473 inhibition): 0.162 µg/mL (≈ 0.32 µM)
Maximum inhibition (percent) pAKT (S473) ([1]; Supplementary Figure 1d, individual patients): 59.9% and 67.4% and 81.4% and 10.2% and 98.8% and 2.4% and 56.3% and 0% and 5.8% and 33.9% and 39.1% and 94.9%
IC50 [2]: 40 nM
Kd [3]: 270 nM
mEFS (95% CI) ([4]; DE 200/100 mg, N=4): 4.4 (0.5-NA) months
mOS (95% CI) ([4]; DE 200/100 mg, N=4): 5.9 (4.4-NA) months
mEFS (95% CI) ([4]; DE 400/100 mg, N=6): 5.3 (2.6-NA) months
mOS (95% CI) ([4]; DE 400/100 mg, N=6): 19 (2.6-NA) months
mEFS (95% CI) ([4]; DE 400/200 mg, N=7): 1.6 (0.7-NA) months
mOS (95% CI) ([4]; DE 400/200 mg, N=7): 8.6 (0.8-NA) months
mEFS (95% CI) ([4]; DE 600/200 mg, N=14): 1.2 (0.7-2.1) months
mOS (95% CI) ([4]; DE 600/200 mg, N=14): 2.5 (1.1-NA) months
mOS (95% CI) ([4]; DE 900/300 mg, N=5): 6.9 (NA-NA) months
mEFS (95% CI) ([4]; DE overall, N=36): 2.1 (1.4-2.8) months
mOS (95% CI) ([4]; DE overall, N=36): 5.3 (2.6-9.1) months
Kd [5]: 810 nM
Reduction in tumor burden ([6]; oral treatment): dose-dependent
Axl and ERK phosphorylation levels [6]: dose-dependent reduction
Tumor growth [7]: inhibited
